Experimental data as given in ChEMBL document CHEMBL4627403, “Development of Selective Steroid Inhibitors for the Glucose-6-phosphate Dehydrogenase from Trypanosoma cruzi” (ACS Med Chem Lett, 2020).
Active and inactive are the calls of the source. The calls are words filed in the database; no cut-off is given here.

What was measured:
[1] = Inhibition of recombinant Trypanosoma cruzi G6PDH expressed in Escherichia coli by fluorescence assay
[2] = system: H9c2; test: Cytotoxicity against rat H9c2 cells at 20 uM after 72 hrs by Hoechst 33342 staining based fluorescence microscopy; format: cell-based; conditions: h9c2, 72 h
[3] = system: Trypanosoma cruzi; test: Antitrypanosomal activity against Trypanosoma cruzi Y amastigotes infected in rat H9C2 cells assessed as reduction in parasite infection at 20 uM after 72 hrs by Hoechst 33342 staining based fluorescence microscopy; format: functional, organism-based
[4] = system: Trypanosoma cruzi; test: Antitrypanosomal activity against Trypanosoma cruzi Y amastigotes infected in rat H9C2 rat cells assessed as reduction in number of infected cells at 10 uM after 72 hrs by Hoechst 33342 staining based fluorescence microscopy; format: functional, organism-based
[5] = system: H9c2; test: Cytotoxicity against rat H9c2 cells after 72 hrs by Hoechst 33342 staining based fluorescence microscopy; format: cell-based; conditions: H9c2, 72 h
[6] = Selectivity index, ratio of IC50 for human G6PDH to IC50 for Trypanosoma cruzi G6PDH
[7] = system: Trypanosoma cruzi; test: Antitrypanosomal activity against Trypanosoma cruzi Y amastigotes infected in rat H9C2 cells after 72 hrs by Hoechst 33342 staining based fluorescence microscopy; format: functional, organism-based; conditions: H9c2, 72 h
[8] = Selectivity index, ratio of EC50 for cytotoxicity against rat H9C2 cells to EC50 for antitrypanosomal activity against Trypanosoma cruzi Y amastigotes infected in rat H9C2 cells; format: toxicity, cell-based; conditions: read-out: Ratio EC50
[9] = molecular target: T1, Glucose-6-phosphate 1-dehydrogenase (Homo sapiens, UniProt P11413); test: Inhibition of recombinant human G6PDH expressed in Escherichia coli at 80 uM by fluorescence assay
T1 sequence (P11413 whole entry): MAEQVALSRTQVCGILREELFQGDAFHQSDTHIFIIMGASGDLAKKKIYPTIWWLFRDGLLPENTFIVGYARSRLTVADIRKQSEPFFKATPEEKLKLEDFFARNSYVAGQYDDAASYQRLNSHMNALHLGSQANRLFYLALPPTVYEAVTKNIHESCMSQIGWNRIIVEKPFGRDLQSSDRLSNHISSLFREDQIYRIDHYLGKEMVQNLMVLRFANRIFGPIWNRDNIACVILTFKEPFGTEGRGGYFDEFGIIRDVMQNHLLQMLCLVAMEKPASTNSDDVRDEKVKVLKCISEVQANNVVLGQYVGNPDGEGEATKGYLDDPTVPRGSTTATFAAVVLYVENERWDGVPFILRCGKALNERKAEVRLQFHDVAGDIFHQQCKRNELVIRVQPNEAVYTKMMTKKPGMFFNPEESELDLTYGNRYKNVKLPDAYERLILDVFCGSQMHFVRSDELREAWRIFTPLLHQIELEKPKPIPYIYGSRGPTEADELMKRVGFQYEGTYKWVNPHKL

[10] = molecular target: T1, Glucose-6-phosphate 1-dehydrogenase; test: Inhibition of recombinant human G6PDH expressed in Escherichia coli by fluorescence assay

With `C[C@]12CC[C@H](OCCS(=O)(=O)N3CCOCC3)C[C@@H]1CC[C@@H]1[C@@H]2CC[C@]2(C)C(=O)CC[C@@H]12` as the compound, how does the IC50 [1] read?
Its IC50 is 20 µM.

With `CO[C@H]1CC[C@@]2(C)[C@@H](CC[C@@H]3[C@@H]2CC[C@]2(C)C(=O)CC[C@@H]32)C1` as the compound, how does the Activity [2] read?
Its Activity is “Non-Toxic”.

And the Activity [3]?
The Activity was “inactive”.

With `C[C@]12CC[C@H](OS(C)(=O)=O)C[C@@H]1CC[C@@H]1[C@@H]2CC[C@]2(C)C(=O)[C@H](Br)C[C@@H]12` as the compound, how does the Activity [2] read?
Its Activity is “Toxic”.

What about the Activity [4] of the same compound?
Its Activity is “Active”.

And the Activity [3]?
Its Activity is “Active”.

And the EC50 [5]?
Its EC50 is 7.5 µM.

What about the Ratio IC50 [6] of the same compound?
The Ratio IC50 was 6.

And the EC50 [7]?
Its EC50 is 2.4 µM.

What about the selectivity ratio [8] of the same compound?
The selectivity ratio was 3.1.

With `CN1CCN(CC(=O)O[C@H]2CC[C@@]3(C)[C@@H](CC[C@@H]4[C@@H]3CC[C@]3(C)C(=O)CC[C@@H]43)C2)CC1` as the compound, how does the IC50 [1] read?
The IC50 was 10 µM.

Which IC50 [1] does the source give for `CC(C)C(=O)O[C@H]1CC[C@@]2(C)[C@@H](CC[C@@H]3[C@@H]2CC[C@]2(C)C(=O)[C@H](Br)C[C@@H]32)C1` here?
Its IC50 is 0.15 to 0.38 µM.

What about the “inhibition (INH)” value [9] of the same compound?
Its value is “Not Active”.

What about the Ratio IC50 [6] of the same compound?
Its Ratio IC50 is over 400.

For `C=CCC(=O)O[C@H]1CC[C@@]2(C)[C@@H](CC[C@@H]3[C@@H]2CC[C@]2(C)C(=O)CC[C@@H]32)C1`, which Activity [2] is on record?
Its Activity is “Non-Toxic”.

And the IC50 [1]?
The IC50 was over 3 µM.

And the Activity [3]?
Its Activity is “inactive”.

What does the source list for `O=C(Cn1ccnc1[N+](=O)[O-])NCc1ccccc1` [BENZNIDAZOLE]?
Activity [4]: Active; EC50 [5]: > 40 µM

With `CN1CCN(CCS(=O)(=O)O[C@H]2CC[C@@]3(C)[C@@H](CC[C@@H]4[C@@H]3CC[C@]3(C)C(=O)CC[C@@H]43)C2)CC1` as the compound, how does the Activity [2] read?
The Activity was “Non-Toxic”.

And the IC50 [1]?
The IC50 was 5 µM.

And the Activity [3]?
The Activity was “inactive”.

For `CC(=O)O[C@H]1CC[C@@]2(C)[C@@H](CC[C@@H]3[C@@H]2CC[C@]2(C)C(=O)[C@H](Br)C[C@@H]32)C1`, which Activity [2] is on record?
The Activity was “Toxic”.

And the IC50 [1]?
Its IC50 is 0.15 to 0.38 µM.

What about the Activity [3] of the same compound?
The Activity was “Active”.

What about the EC50 [5] of the same compound?
Its EC50 is 14.7 µM.

What about the Ratio IC50 [6] of the same compound?
Its Ratio IC50 is 160.

What about the EC50 [7] of the same compound?
Its EC50 is 8.5 µM.

What about the selectivity ratio [8] of the same compound?
The selectivity ratio was 1.7.

Which IC50 [10] does the source give for `CN1CCN(C[C@H](O)CO[C@H]2CC[C@@]3(C)[C@@H](CC[C@@H]4[C@@H]3CC[C@]3(C)C(=O)CC[C@@H]43)C2)CC1` here?
The IC50 was over 40 µM.

With `C[C@]12CC[C@H](OS(=O)(=O)CCN3CCOCC3)C[C@@H]1CC[C@@H]1[C@@H]2CC[C@]2(C)C(=O)CC[C@@H]12` as the compound, how does the Activity [2] read?
Its Activity is “Non-Toxic”.

And the IC50 [1]?
Its IC50 is 5 µM.

What about the Activity [3] of the same compound?
The Activity was “inactive”.

With `C[C@]12CCCC[C@@H]1CC[C@@H]1[C@@H]2CC[C@]2(C)C(=O)[C@H](Br)C[C@@H]12` as the compound, how does the Activity [2] read?
The Activity was “Toxic”.

What about the Activity [3] of the same compound?
The Activity was “Active”.

And the EC50 [5]?
Its EC50 is 8.4 µM.

And the EC50 [7]?
Its EC50 is 3.5 µM.

And the selectivity ratio [8]?
Its selectivity ratio is 2.4.

Which IC50 [10] does the source give for `C[C@]12CC[C@H](OC[C@H](O)CN3CCOCC3)C[C@@H]1CC[C@@H]1[C@@H]2CC[C@]2(C)C(=O)CC[C@@H]12` here?
Its IC50 is over 40 µM.

For `CN1CCN(CCC(=O)O[C@H]2CC[C@@]3(C)[C@@H](CC[C@@H]4[C@@H]3CC[C@]3(C)C(=O)CC[C@@H]43)C2)CC1`, which IC50 [1] is on record?
The IC50 was 10 µM.

For `CC(C)CO[C@H]1CC[C@@]2(C)[C@@H](CC[C@@H]3[C@@H]2CC[C@]2(C)C(=O)[C@H](Br)C[C@@H]32)C1`, which Activity [2] is on record?
The Activity was “Toxic”.

What about the Activity [4] of the same compound?
The Activity was “Active”.

And the Activity [3]?
The Activity was “Active”.

And the EC50 [5]?
Its EC50 is 12.3 µM.

What about the EC50 [7] of the same compound?
The EC50 was 4.2 µM.

And the selectivity ratio [8]?
The selectivity ratio was 2.9.

What does the source list for `C[C@]12CC[C@H](O)C[C@@H]1CC[C@@H]1[C@@H]2CC[C@]2(C)C(=O)CC[C@@H]12` [EPIANDROSTERONE]?
Activity [2]: Non-Toxic; Activity [3]: inactive

With `C[C@]12CC[C@H](OC(=O)CCN3CCOCC3)C[C@@H]1CC[C@@H]1[C@@H]2CC[C@]2(C)C(=O)CC[C@@H]12` as the compound, how does the IC50 [1] read?
Its IC50 is 10 µM.

For `C[C@]12CC[C@H](O)C[C@@H]1CC[C@@H]1[C@@H]2CC[C@]2(C)C(=O)[C@H](Br)C[C@@H]12` [16.ALPHA.-BROMOEPIANDROSTERONE], which Activity [2] is on record?
Its Activity is “Toxic”.

And the Activity [3]?
The Activity was “Active”.

What about the EC50 [5] of the same compound?
Its EC50 is 13 µM.

And the Ratio IC50 [6]?
Its Ratio IC50 is 2.

What about the EC50 [7] of the same compound?
Its EC50 is 6.4 µM.

What about the selectivity ratio [8] of the same compound?
The selectivity ratio was 2.

With `C[C@]12CC[C@H](OCC(=O)N3CCOCC3)C[C@@H]1CC[C@@H]1[C@@H]2CC[C@]2(C)C(=O)[C@H](Br)C[C@@H]12` as the compound, how does the Activity [2] read?
Its Activity is “Toxic”.

And the Activity [3]?
Its Activity is “Active”.

What about the EC50 [5] of the same compound?
The EC50 was 5.6 µM.

And the Ratio IC50 [6]?
The Ratio IC50 was 5 to 10.

And the EC50 [7]?
Its EC50 is 3.2 µM.

And the selectivity ratio [8]?
The selectivity ratio was 1.8.

For `C[C@]12CC[C@H](OC(=O)CN3CCOCC3)C[C@@H]1CC[C@@H]1[C@@H]2CC[C@]2(C)C(=O)CC[C@@H]12`, which IC50 [1] is on record?
Its IC50 is 10 µM.

For `CN1CCN(C[C@@H](O)CO[C@H]2CC[C@@]3(C)[C@@H](CC[C@@H]4[C@@H]3CC[C@]3(C)C(=O)CC[C@@H]43)C2)CC1`, which IC50 [10] is on record?
The IC50 was over 40 µM.

Which results are given for `CC(C)C(=O)O[C@H]1CC[C@@]2(C)[C@@H](CC[C@@H]3[C@@H]2CC[C@]2(C)C(=O)CC[C@@H]32)C1`?
Activity [2]: Non-Toxic; IC50 [1]: > 3 µM; Activity [3]: inactive

Which IC50 [10] does the source give for `C[C@]12CC[C@H](OC[C@@H](O)CN3CCOCC3)C[C@@H]1CC[C@@H]1[C@@H]2CC[C@]2(C)C(=O)CC[C@@H]12` here?
Its IC50 is over 40 µM.

Which Activity [2] does the source give for `CC(=O)O[C@H]1CC[C@@]2(C)[C@@H](CC[C@@H]3[C@@H]2CC[C@]2(C)C(=O)CC[C@@H]32)C1` here?
Its Activity is “Non-Toxic”.

And the IC50 [1]?
Its IC50 is over 3 µM.

What about the Activity [3] of the same compound?
The Activity was “inactive”.

Which Activity [2] does the source give for `C[C@]12CC[C@H](OS(C)(=O)=O)C[C@@H]1CC[C@@H]1[C@@H]2CC[C@]2(C)C(=O)CC[C@@H]12` here?
Its Activity is “Non-Toxic”.

What about the Activity [3] of the same compound?
Its Activity is “inactive”.

And the Ratio IC50 [6]?
The Ratio IC50 was 2.

For `C[C@]12CC[C@H](OCCS(=O)(=O)N3CCOCC3)C[C@@H]1CC[C@@H]1[C@@H]2CC[C@]2(C)C(=O)[C@H](Br)C[C@@H]12`, which Activity [2] is on record?
The Activity was “Toxic”.

What about the Activity [4] of the same compound?
The Activity was “Active”.

And the Activity [3]?
The Activity was “Active”.

And the EC50 [5]?
Its EC50 is 8.5 µM.

And the Ratio IC50 [6]?
The Ratio IC50 was 5 to 10.

What about the EC50 [7] of the same compound?
The EC50 was 2.4 µM.

And the selectivity ratio [8]?
The selectivity ratio was 3.5.

Which Activity [2] does the source give for `C=CCC(=O)O[C@H]1CC[C@@]2(C)[C@@H](CC[C@@H]3[C@@H]2CC[C@]2(C)C(=O)[C@H](Br)C[C@@H]32)C1` here?
Its Activity is “Toxic”.

And the IC50 [1]?
The IC50 was 0.15 to 0.38 µM.

And the Activity [3]?
The Activity was “Active”.

And the EC50 [5]?
Its EC50 is 54 µM.

What about the EC50 [7] of the same compound?
Its EC50 is 16.7 µM.

What about the selectivity ratio [8] of the same compound?
Its selectivity ratio is 3.2.
